# Measured values: patent US12383522B2, “Baclofen formulations and methods of minimizing patient exposure to metabolite variations” (AMNEAL PHARMACEUTICALS LLC, priority 2021, dated 2025)
# Where two headings read alike, the source gives them in different places.
# Legend:
# [1] = Accelerated stability studies of API/stabilizer preparations (Example 1), lactam impurity A by HPLC; format: physicochemical
# [2] = background statement; cited from earlier work
structure (smiles),measurement,setting,value
"NCC(CC(=O)O)c1ccc(Cl)cc1 (centres unmarked) [baclofen, 4-amino-3-(4-chlorophenyl)butanoic acid]",effect of EUDRAGIT E on formation of lactam impurity A,"[1]; closed glass vials, 60° C. (baclofen, gabapentin) or 80° C. (pregabalin), HPLC, FIGS. 1-12",stabilization effect
"O=C(O)CC(CO)c1ccc(Cl)cc1 (centres unmarked) [Treatment M1, 3-(4-chlorophenyl)-4-hydroxybutyric acid]",biological activity of metabolite (limited evaluation),[2],inactive
same,share of dominant metabolite of baclofen (reported),[2],15%
NCC1(CC(=O)O)CCCCC1 [gabapentin],effect of EUDRAGIT E on formation of lactam impurity A,[1],destabilization effect
CC(C)C[C@H](CN)CC(=O)O [pregabalin],effect of EUDRAGIT E on formation of lactam impurity A,[1],destabilization effect
